Laboratory results: ChEMBL document CHEMBL4351028, “Benzoyl indoles with metabolic stability as reversal agents for ABCG2-mediated multidrug resistance” (Eur J Med Chem, 2019)
Active and inactive are the calls of the source. The rule behind the calls is not given here.

What was measured:
[1] = biological target: T1, Broad substrate specificity ATP-binding cassette transporter ABCG2 (Homo sapiens, UniProt Q9UNQ0); experiment: Reversal of ABCG2 (unknown origin) expressed in HEK293 cells-mediated multidrug resistance assessed as potentiation of mitoxantrone-induced cytotoxicity at 2.5 to 5 uM pretreated for 2 hrs followed by mitoxantrone addition and measured after 44 hrs by MTT assay; type: cell-based; conditions: hek293, 44 h
T1 sequence (Q9UNQ0 whole entry): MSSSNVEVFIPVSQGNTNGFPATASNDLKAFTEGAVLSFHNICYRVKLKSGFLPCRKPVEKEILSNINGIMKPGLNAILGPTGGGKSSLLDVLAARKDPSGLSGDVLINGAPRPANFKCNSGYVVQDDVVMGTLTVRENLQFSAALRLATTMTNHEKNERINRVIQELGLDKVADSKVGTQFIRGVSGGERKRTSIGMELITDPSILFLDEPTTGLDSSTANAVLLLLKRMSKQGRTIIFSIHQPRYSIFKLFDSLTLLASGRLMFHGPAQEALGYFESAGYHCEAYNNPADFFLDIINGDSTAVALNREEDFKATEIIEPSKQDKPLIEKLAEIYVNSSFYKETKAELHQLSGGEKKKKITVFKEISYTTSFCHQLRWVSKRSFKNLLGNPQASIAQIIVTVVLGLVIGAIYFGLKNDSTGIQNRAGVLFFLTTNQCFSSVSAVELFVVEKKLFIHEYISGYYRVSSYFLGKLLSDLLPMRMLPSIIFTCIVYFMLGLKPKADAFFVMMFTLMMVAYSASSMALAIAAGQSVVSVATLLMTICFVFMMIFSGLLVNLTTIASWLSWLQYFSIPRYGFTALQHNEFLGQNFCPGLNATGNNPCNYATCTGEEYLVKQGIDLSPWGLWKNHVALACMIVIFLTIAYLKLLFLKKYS

[2] = Cytotoxicity against human S1 cells assessed as inhibition of cell viability at 5 to 25 uM incubated for 2 hrs by MTT assay relative to control; type: cell-based; conditions: read-out: INH
[3] = biological target: T1, Broad substrate specificity ATP-binding cassette transporter ABCG2; experiment: Competitive substrate activity at ABCG2 (unknown origin) expressed in High Five insect cell vesicle membrane assessed as stimulation of ATPase activity up to 40 uM by PREDEASY ATPase assay relative to control
[4] = Cytotoxicity against human NCI-H460/MX20 cells assessed as inhibition of cell viability at 5 to 25 uM incubated for 2 hrs by MTT assay relative to control; type: cell-based; conditions: read-out: INH
[5] = Cytotoxicity against HEK293 cells harbouring ABCG2-482-T7 mutant assessed as inhibition of cell viability at 5 to 25 uM incubated for 2 hrs by MTT assay relative to control; type: ADME, cell-based; conditions: human, read-out: INH
Homo sapiens [6] = species on record: Homo sapiens; experiment: Effect on ABCG2 expression in human NCI-H460/MX20 cells at 5 uM incubated up to 72 hrs by Western blot analysis; type: functional, cell-based
HEK293 [7] = experiment: Reversal of ABCG2 482-G2 mutant (unknown origin) expressed in HEK293 cells-mediated multidrug resistance assessed as potentiation of mitoxantrone-induced cytotoxicity at 2.5 to 5 uM pretreated for 2 hrs followed by mitoxantrone addition and measured after 44 hrs by MTT assay; type: cell-based; conditions: Homo sapiens
NCI-H460 [8] = experiment: Cytotoxicity against human NCI-H460 cells assessed as concentration that causes inhibition of cell viability by <=20% incubated for 24 hrs by MTT assay; type: cell-based; conditions: nci-h460, 24 h
[9] = biological target: T1, Broad substrate specificity ATP-binding cassette transporter ABCG2; experiment: Reversal of ABCG2-mediated multidrug resistance in human S1-M1-80 cells assessed as potentiation of mitoxantrone-induced cytotoxicity at 5 uM pretreated with compound for 2 hrs followed by mitoxantrone challenge for 44 hrs by MTT assay; type: cell-based
Homo sapiens [10] = species on record: Homo sapiens; experiment: Effect on ABCG2 internalization in human NCI-H460/MX20 cells at 5 uM incubated for 72 hrs by immunofluorescence analysis; type: functional, cell-based
[11] = Cytotoxicity against HEK293 cells harbouring ABCG2-482-G2 mutant assessed as inhibition of cell viability at 5 to 25 uM incubated for 2 hrs by MTT assay relative to control; type: ADME, cell-based; conditions: human, read-out: INH
[12] = biological target: T1, Broad substrate specificity ATP-binding cassette transporter ABCG2; experiment: Inhibition of ABCG2-mediated mitoxantrone efflux in human NCI-H460/MX20 cells assessed as increase in accumulation of [3H]MX at 5 uM incubated for 2 hrs followed by [3H]MX addition further incubated for 2 hrs by liquid scintillation counter relative to control; type: cell-based
[13] = Cytotoxicity against HEK293 cells expressing wild type ABCG2-482-R2 assessed as inhibition of cell viability at 5 to 25 uM incubated for 2 hrs by MTT assay relative to control; type: ADME, cell-based; conditions: human, read-out: INH
[14] = biological target: T1, Broad substrate specificity ATP-binding cassette transporter ABCG2; experiment: Competitive substrate activity at ABCG2 (unknown origin) expressed in High Five insect cell vesicle membrane assessed as stimulation of ATPase activity by PREDEASY ATPase assay
[15] = biological target: T1, Broad substrate specificity ATP-binding cassette transporter ABCG2; experiment: (§1) Reversal of ABCG2-mediated multidrug resistance in human NCI-H460/MX20 cells assessed as potentiation of mitoxantrone-induced cytotoxicity by measuring inhibition of cell proliferation pretreated for 2 hrs followed by mitoxantrone addition and measured after 44 hrs by MTT assay; type: cell-based
[16] = Cytotoxicity against HEK293 cells transfected with pcDNA3.1 assessed as inhibition of cell viability at 5 to 25 uM incubated for 2 by MTT assay relative to control; type: cell-based; conditions: human, read-out: INH
[17] = Cytotoxicity against human NCI-H460/MX20 cells assessed as concentration that causes inhibition of cell viability by <=20% incubated for 24 hrs by MTT assay; type: cell-based
[18] = biological target: T1, Broad substrate specificity ATP-binding cassette transporter ABCG2; experiment: Reversal of ABCG2-mediated multidrug resistance in human NCI-H460/MX20 cells assessed as potentiation of mitoxantrone-induced cytotoxicity at 2.5 to 5 uM pretreated with compound for 2 hrs followed by mitoxantrone challenge for 44 hrs by MTT assay; type: cell-based
[19] = biological target: T1, Broad substrate specificity ATP-binding cassette transporter ABCG2; experiment: Reversal of ABCG2-mediated multidrug resistance in human NCI-H460/MX20 cells assessed as cisplatin-induced cytotoxicity at 5 uM pretreated with compound for 2 hrs followed by cisplatin challenge for 44 hrs by MTT assay; type: cell-based
[20] = biological target: T1, Broad substrate specificity ATP-binding cassette transporter ABCG2; experiment: as §1, with “proliferation at 10 uM” for “proliferation”, “assay (reference value: 24 +/- 3%)” for “assay”; type: cell-based
[21] = Metabolic stability in human liver microsomes assessed as compound remaining at 100 uM incubated for 1 hr by HPLC analysis; type: ADME, Microsome; conditions: read-out: Stability
ABCG2 = biological target: T2, ABCG2 (Homo sapiens, UniProt Q9UNQ0); experiment: Competitive substrate activity at ABCG2 (unknown origin) expressed in High Five insect cell vesicle membrane assessed as stimulation of ATPase activity at 0.75 uM by PREDEASY ATPase assay relative to control; conditions: High Five insect cell vesicle membranes expressing ABCG2
T2 sequence (Q9UNQ0 whole entry): T1 sequence (Q9UNQ0 whole entry)

NCI-H460 [22] = experiment: Cytotoxicity against human NCI-H460 cells assessed as inhibition of cell viability incubated for 2 hrs by MTT assay; type: cell-based; conditions: NCI-H460, 2 h, read-out: IC50
[23] = biological target: T1, Broad substrate specificity ATP-binding cassette transporter ABCG2; experiment: Reversal of ABCG2-mediated multidrug resistance in human S1-M1-80 cells assessed as potentiation of doxorubicin-induced cytotoxicity at 5 uM pretreated with compound for 2 hrs followed by doxorubicin challenge for 44 hrs by MTT assay; type: cell-based
[24] = Cytotoxicity against human NCI-H460 cells assessed as inhibition of cell viability at 5 to 25 uM incubated for 2 hrs by MTT assay relative to control; type: cell-based; conditions: read-out: INH
[25] = Cytotoxicity against human S1-M1-80 cells assessed as inhibition of cell viability at 5 to 25 uM incubated for 2 hrs by MTT assay relative to control; type: cell-based; conditions: read-out: INH
[26] = Cytotoxicity against human NCI-H460/MX20 cells assessed as inhibition of cell viability incubated for 2 hrs by MTT assay; type: cell-based; conditions: NCI-H460/MX20, 2 h
HEK293 [27] = experiment: Reversal of ABCG2 482-T7 mutant (unknown origin) expressed in HEK293 cells-mediated multidrug resistance assessed as potentiation of mitoxantrone-induced cytotoxicity at 2.5 to 5 uM pretreated for 2 hrs followed by mitoxantrone addition and measured after 44 hrs by MTT assay; type: cell-based; conditions: Homo sapiens

fold change (FC) [3]: 2.03
Activity [14]: Dose-dependent effect
remaining at 1 h, 100 µM [21]: 78%
Emax at 0.75 µM (ABCG2): 50%
Compound: COc1ccc(C(=O)c2c[nH]c3ccc(OC)cc23)cc1
Activity [1]: Active
cytotoxicity at 2 h, up to 25 µM [2]: < 20%
cytotoxicity at 2 h, up to 25 µM [4]: < 20%
cytotoxicity at 2 h, up to 25 µM [5]: < 20%
Activity (Homo sapiens [6]): inactive
Activity (HEK293 [7]): Active
Activity (NCI-H460 [8]): 10 µM
Activity [9]: Active
Activity (Homo sapiens [10]): inactive
cytotoxicity at 2 h, up to 25 µM [11]: < 20%
fold change (FC) [12]: 2.7
cytotoxicity at 2 h, up to 25 µM [13]: < 20%
inhibition (INH) [15]: Dose-dependent effect
cytotoxicity at up to 25 µM [16]: < 20%
Activity [17]: 10 µM
Activity [18]: Active
Activity [19]: Not Active
inhibition at 10 µM [20]: > 87%
IC50 (NCI-H460 [22]): > 100 µM
Activity [23]: Active
cytotoxicity at 2 h, up to 25 µM [24]: < 20%
cytotoxicity at 2 h, up to 25 µM [25]: < 20%
IC50 [26]: 66.9 µM
Activity (HEK293 [27]): Active
